One assay concerns site of TCP. In words: Affinity for the TCP site, competition with (^3 H)TCP on rat brain homogenates. In kind it is binding. To be noted: rat brain homogenate, pH 7.7, 25° C., 1 nmole tritiated ligand; read-out: ^3 HTCP IC50.
Assay [1] concerns the target cerebral cholinergic muscarinic receptor. It counts as binding, rat. As to conditions: for IC50: rat brain homogenate, read-out: ^3 HQNB IC50; for ^3 HQNB/^3 HTCP: ratio of IC50.
The next assay relates to Swiss mice. In words: Simple rotary bar test (dose at which 50% of the animals drop). It counts as in vivo. To be noted: for ED50: Mus musculus, sc. The procedure:
In this example, the properties of compounds 1 to 5 and 8 to 11 are tested on Swiss mice.
Different doses of the compounds to be tested are administered subcutaneously to the mice and the latter are then placed in batches of 10 on a rotary bar, being separated from one another by separating disks. This bar is made from scraped wood, has a diameter of 3 cm and is moved horizontally with a uniform circular movement about its axis at a speed of 10 rpm.
Determination takes place of the ED50, which is the dose at which 50% of the animals drop, the dose being expressed in mg/kg.

The subject of a further assay is site of PCP. Put plainly: Affinity for the PCP site, competition with (^3 H)PCP on rat brain homogenates. It counts as binding. As to conditions: rat brain homogenate, pH 7.7, 25° C., 1 nmole tritiated ligand.
Assay [2] has as its system synaptosomal striatal (^3 H)DA capture. In words: Inhibition test of the synaptosomal striatal sample (capture) of (^3 H)DA. It counts as biochemical, Wistar rats. As to conditions: for IC50: rat striatal synaptosomes, 5 nM (^3 H)DA, 5 min at 30° C., pH 7.4, read-out: ^3 HDA IC50; for ^3 HDA/^3 H-TCP: ratio of IC50. The procedure: This test is carried out according to the method used by Vignon and Lazdunski operating in the following way. Wistar rats weighing 200 to 250 g are killed by cervical dislocation. Their brains are rapidly removed and the striae dissected on ice. The striae are then homogenized with a Teflon glass Potter homogenizer in 50 volumes of tris HCl 10 mM buffer containing 0.32M of sucrose at pH 7.4 and they are centrifuged at 1000 g for 10 min. The supernatants are further centrifuged at 10000 g for 20 min. The resulting deposits P2 containing the crude synaptosomes are used without supplementary purification.
The synaptosomes are balanced with the compound to be tested for 30 min at 30° C. in the Ringer medium (mM: 140 NaCl, 5 KCl, 2.6 CaCl2, 1.3 MgSO4, 10 tris-HCl, pH=7.4)+200 μM of pargyline. This is followed by the addition of (^3 H)DA labelled dopamine at a final concentration of 5 nM for 5 min at 30° C. and sampling is interrupted by filtration of the incubate (150 μl) on GF/B filters. The non-specific sample is measured at 4° C. in parallel incubations and is deducted from the total sample at 30° C. The IC50 is the compound concentration preventing 50% of the specific capture compared with the control in the absence of an inhibitor.

A further assay deals with hippocampal cells. In words: Protection of hippocampal cells in vitro against acute glutamate damage. It counts as cell-based, rat. The arrangement: key: ++: severe damage; +: partial protection; -: no damage. As to conditions: 24 h after 5 min exposure to glutamate. The procedure:
(§1) This example illustrates the effect of the arylcyclohexylamines according to the invention on in vitro cultures of rat brain cells as a neuroprotector against acute attacks caused by the presence of glutamate.
(§2) Cortical and hippocampal neuron cultures were prepared from the fetuses of rats aged from 17 to 18 days. The hemispheres or hippocampi are dissected and immersed in a buffer containing EDTA (Versene) for 10 min. The tissues are then mechanically dissociated in a saline PUCK solution free from calcium and magnesium and centrifuged at 70 g for 10 min. The centrifuging deposit is resuspended in a culture medium constituted by 60% of the minimum essential Eagle medium (MEM), 25% of a saline Hank solution, 5% of human serum, 5% of calf foetus serum, 5% of embryo extract and which are complemented with 6% glucose. The cells are introduced at a density of 10^6 cells per ml into 24 Wells previously coated with polylysine D. The cultures are allowed to grow for 3 weeks, […] of the culture medium being renewed every 3 days. The test is carried out in the following way. Glutamate dissolved in 10 μl of MEM is added to the medium in order to obtain a final glutamate concentration of 5·10^-4 M. After exposure for 5 min, the medium is changed. For studying the antagonist derivatives of the glutamate, to the culture medium is added the compound to be test in 10 μl of MEM in order to obtain a final concentration of compound of 200, 20 or 0.2·10^-6 M. Five minutes later, glutamate is added to the medium and then the medium is replenished after exposure for 5 minutes. The protected and unprotected cultures are then examined and photographed at intervals between 30 min and 24 h.

The test system of assay [3] is cortical and hippocampal neurons. In words: Protection of cortical and hippocampal neuron cultures against glutamate. In kind it is cell-based, rat. The procedure:
as §1, §2

For another assay, the system named is cortical cells. In words: Protection of cortical cells in vitro against acute glutamate damage. In kind it is cell-based, rat. The arrangement: key: ++: severe damage; +: partial protection; -: no damage. To be noted: 24 h after 5 min exposure to glutamate. The procedure:
as §1, §2

The subject of assay [4] is cortical and hippocampal neurons. In words: In vitro neuron culture survival after 2 months, count of neurons (Example 23). It counts as cell-based, rat. As to conditions: single dose at start of third week; TCP 2.5 and 20, compound 9 and MK801 2.5 and 5 μmole/l; control 50 neurons/mm^2. The procedure:
This example also illustrates the effect of the arylcyclohexylamines according to the invention on the in vitro neuron culture survival. As in example 21, cortical and hippocampal neuron cultures are prepared. At the start of the third culturing week, the cells are treated with a single dose of the compound to be tested and culturing is continued for two months. At the end of this period, the cells which were fixed and dyed to reveal the specific enolase of the neurons are subject to counts in order to determine the quantity of cells per surface unit.
The results obtained are given in FIG. 1, which is a histogram indicating the number of cells/mm^2 which survived after 2 months culturing.
The results are given for the control, i.e. for untreated cultures, cultures treated with 2.5 and 20 μmole/l of TCP, cultures treated by compound no. 9 at concentrations of 2.5 and 5 μmole/l and cultures treated by compound MK801 at concentrations of 2.5 and 5 μmole/l. Compound MK801, which is known to have a neuroprotection activity, is (+)-methyl-5-dihydro-10,11(5H)dibenzo(A,D) cyclohepteneimine-5,10 of formula: [drawing 38] From FIG. 1 it can be seen that the control cultures, after surviving for 2 months, on average contain 50 neurons/mm^2. The treated cultures, no matter what the compound and dose used, contain more than 500 neurons/mm^2.

A further assay addresses T1, receptor of the opiates (Rattus norvegicus, UniProt P33535).
T1 construct: variable concentrations of the tested compound and a rat brain homogenate; from tissue; host or cells: rat brain homogenate
Put plainly: Competition test with ^3 H-DHM for the receptor of the opiates. It counts as binding. The procedure: In this test, a fixed concentration of ^3 H-DHM labelled morphine was incubated in the presence of variable concentrations of the tested compound and a rat brain homogenate. The concentration of the compound preventing the fixing of 50% of ^3 H-DHM (IC50) is a measure of the affinity of the compound for the receptor of the opiates. The latter also gives the results obtained with PCP and TCP, as well as the ratios H^3 DA/^3 H-TCP, ^3 HQNB/^3 H-TCP and ^3 HDHM/^3 HTCP obtained with the different tested compounds.

Where [5] appears, read: Swiss mice, subcutaneous, dose at which 50% of the animals drop, read-out: ED50.

Read-outs that look alike come from different tables or passages of the source.

T1 sequence (P33535 whole entry): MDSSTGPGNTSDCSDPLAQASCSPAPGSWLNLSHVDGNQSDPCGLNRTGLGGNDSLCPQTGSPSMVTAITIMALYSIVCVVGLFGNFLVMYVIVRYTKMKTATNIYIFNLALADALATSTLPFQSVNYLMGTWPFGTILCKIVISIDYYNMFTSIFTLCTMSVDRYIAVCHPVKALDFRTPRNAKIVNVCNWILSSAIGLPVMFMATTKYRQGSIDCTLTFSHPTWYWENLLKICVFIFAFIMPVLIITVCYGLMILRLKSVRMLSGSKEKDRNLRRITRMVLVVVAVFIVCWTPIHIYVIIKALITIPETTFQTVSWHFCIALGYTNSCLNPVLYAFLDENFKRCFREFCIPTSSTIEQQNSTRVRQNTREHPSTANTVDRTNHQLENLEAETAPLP

In general, IC50 refers to the concentration needed to halve the response being measured. A word on the ED50: it is the dose that gives a 50% effect, or the effect in half of the subjects. For the compound `C[C@H]1CC[C@](c2cccs2)(N2CCCCC2)CC1` [compound 10], the IC50 in the assay with site of TCP worked out at 0.034 µM; in [1] it was 29.3 µM; in the assay on site of PCP, 0.14 µM; in [2], 3.6 µM. Besides, the “^3 HQNB/^3 HTCP” value in assay [1] is on record as 862. The ED50 in the assay with Swiss mice (setting [5]) came to 19 mg/kg. The “^3 HDA/^3 H-TCP” value in assay [2] turned out to be 105.

As to `C1=CCN(C2(c3cccs3)CCCCC2)CC1` [Compound No. 2, ((tetrahydro-1,2,5,6pyridino)-1)-1 (thienyl-2)-1 cyclohexane], the “Treatment of hippocampal cells, damage” value is recorded as “++” in the assay with hippocampal cells (0.2 μM), “+” in the assay on hippocampal cells (2 μM), “-” in the assay on hippocampal cells (20 μM) and “-” in the assay with hippocampal cells (200 μM). The “protection of the cultures against glutamate” value in assay [3] (0.2 μmole, 24 h after 5 min exposure to glutamate) is “no protection”; in assay [3] (2 μmole, 24 h after 5 min exposure to glutamate) it was “only a limited protection”. Also, the “damage of the cultures by glutamate” value in assay [3] (20 μmole, 24 h after 5 min exposure to glutamate) is “only very slightly damaged”. Also, the “appearance of hippocampal and cortical cell cultures” value in assay [3] (after 24 h, glutamate exposure) is recorded as “appear healthy in the same way as the control cells”. Moreover, the acute swelling entry in [3] (glutamate exposure) is on record as “less intense”. Moreover, in [3] (glutamate exposure), the necrosis entry is listed as “completely blocked”. For the same compound, the half-inhibitory concentration (IC50) with site of TCP worked out at 0.026 µM; in [1], 25 µM; in the assay on site of PCP, 0.017 µM; in assay [2], 4.7 µM. Further, in assay [1], the “^3 HQNB/^3 HTCP” value is 961. Besides, the ED50 with Swiss mice (setting [5]) was 4 mg/kg. Besides, the “Treatment of cortical cells, damage” value in the assay on cortical cells (0.2 μM) is given as “++”; with cortical cells (2 μM), “+”; with cortical cells (20 μM), “-”; in the assay on cortical cells (200 μM) it was “-”.

For `O[C@H]1CCCC[C@]1(c1ccccc1)N1CCCCC1` (relative stereo) [compound 11, t-hydroxy-2 phenyl-1-r-(piperidino-1)-1 cyclohexane], the IC50 in assay [1] was found to be 125 µM; in the assay with site of PCP, 1.17 µM. In assay [1], the “^3 HQNB/^3 HTCP” value worked out at 106.8. Also, in the assay on Swiss mice (setting [5]), the ED50 came to 17 mg/kg.

For `ClCC1CCCN(C2(c3cccs3)CCCCC2)C1` (stereo not drawn) [compound 8, [(chloromethyl-3 piperidino)-1]-1 (thienyl-2)-1 cyclohexane], in [1], the IC50 is 870 µM and the “^3 HQNB/^3 HTCP” value turned out to be 1553. Also, the ED50 in the assay with Swiss mice (setting [5]) worked out at 150 mg/kg. Moreover, the “rotary bar activity, in words” value in the assay on Swiss mice (Swiss mice, subcutaneous) is on record as “low activity compared with the other compounds”. In addition, in the assay with site of PCP, the IC50 was found to be 0.56 µM.

In the case of `CC1CCN(C2(c3ccccc3)CCCCC2)CC1` [compound 1, ((methyl-4 piperidino)-1)-1 phenyl-1 cyclohexane], the ED50 in the assay on Swiss mice (setting [5]) came out at 20 mg/kg. The same compound yielded an IC50 in the assay with site of PCP of 0.4 µM. In addition, in assay [2], the IC50 was found to be 5 µM and the “^3 HDA/^3 H-TCP” value was 125.

Take `CC(=O)OCC1CCCN(C2(c3ccccc3)CCCCC2)C1` (stereo not drawn) [compound 6, acetate of ((hydroxymethyl-3-piperidino)-1)-1 phenyl-1 cyclohexane]: in assay [1], the IC50 came to 140 µM and the “^3 HQNB/^3 HTCP” value stood at 127. The IC50 in the assay with site of PCP came to 1.1 µM.

Turning to `C[C@H]1CC[C@@](c2cccs2)(N2CCCC(CO)C2)CC1` (stereo partly drawn) [compound 5, r-(hydroxymethyl-3-piperidino)-1-c-methyl-4 (thienyl-2)-1 cyclohexane], the IC50 worked out at 110 µM in [1] and 0.38 µM with site of PCP. The “^3 HQNB/^3 HTCP” value in [1] is reported as 289. In the assay on Swiss mice (setting [5]), the ED50 is 8 mg/kg.

`C[C@]12N[C@H](Cc3ccccc31)c1ccccc12` [MK801, (+)-methyl-5-dihydro-10,11(5H)dibenzo(A,D) cyclohepteneimine-5,10, reference compound]: the “number of neurons which survived after 2 months culturing” value in assay [4] is given as “more than 500 neurons/mm^2”.

Take `c1ccc(C2(N3CCCCC3)CCCCC2)cc1` [PCP, 1-(1-phenylcyclohexyl)-piperidine, reference compound]: the IC50 in the assay on site of TCP came to 0.2 µM; on receptor of the opiates it was 26 µM; in assay [1], 30 µM; in the assay with site of PCP, 0.25 µM; in [2] it was 0.5 µM. Besides, at receptor of the opiates (ratio of IC50), the “^3 HDHM/^3 HTCP” value came to 130. Moreover, the “^3 HQNB/^3 HTCP” value in assay [1] is given as 150. In the assay on Swiss mice, the ED50 was determined as 4 mg/kg. The “^3 HDA/^3 H-TCP” value in assay [2] is 2.5.

Regarding `C[C@H]1CC[C@@](c2cccc(F)c2)(N2CCCC(CO)C2)CC1` (stereo partly drawn) [compound 7, ((fluoro-3 phenyl)-1)-r-((hydroxymethyl-3 piperidino)-1)-1-c-methyl-4 cyclohexane], in assay [1], the concentration for half-maximal inhibition (IC50) was determined as 760 µM and the “^3 HQNB/^3 HTCP” value is 168. For the same compound, in the assay with site of PCP, the IC50 was determined as 4.5 µM.

These data come from patent US5179109A (priority 1988, dated 1993).
